Test systems include DU-145; K562; M14; NCI-H460; BT-549; Hs-578T; SK-MEL-5; RXF 393; LOX IMVI; SF-539; SK-MEL-28; MDA-MB-435; A549; PC-3; SNB-75; SK-MEL-2; SF-268; CAKI-1; MDA-N.
Assay in all cases: NCI tumour cell line growth inhibition, 48 h

Structures are written as SMILES.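 Dose response: 5 concentrations. Exposure: 48 h. Format: 96-well plates. Endpoint: linear interpolation; highest concentration if not reached. Here, GI50 denotes the concentration required for 50% inhibition of growth.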 Calls of active or inactive are those of the source. Cut-off read from the data, not from the text of the source: active = GI50 up to about 1.1 µM and inactive = higher. Where a SMILES comes first, the peptide text is derived from it. The star is where a group is joined. CH2Cl = ClC* Where only a bound is given, the exact number is not on record here.

In the case of `COc1ccc(/C=C(/C#N)C(N)=O)cc1OC`, the GI50 with DU-145, in the assay with K562, in the assay with M14, in the assay on NCI-H460, in the assay on BT-549 and with Hs-578T was > 100 µM (inactive) each time. Moreover, the GI50 in the assay on SK-MEL-5, in the assay with RXF 393, in the assay with LOX IMVI, in the assay on SF-539, in the assay on SK-MEL-28 and in the assay with MDA-MB-435 was > 100 µM (inactive) each time. Further, the GI50 in the assay with A549, with PC-3, in the assay on SNB-75, in the assay on SK-MEL-2, in the assay on SF-268 and in the assay on CAKI-1 was > 100 µM (inactive) each time. Also, in the assay with MDA-N, the GI50 was > 100 µM (inactive).

On to `CC(=O)NC(CC(C)C)C(=O)NC(Cc1ccccc1)C(=O)CCl` (stereo not drawn) (Ac-Leu-Phe-CH2Cl; configuration not given here), for which the GI50 is 12.1 µM (inactive) with DU-145; 1.63 µM (inactive) in the assay with K562; 6.89 µM (inactive) in the assay with M14; 20.8 µM (inactive) with NCI-H460; 14.9 µM (inactive) with BT-549; 17.3 µM (inactive) in the assay on Hs-578T. Further, the GI50 in the assay on SK-MEL-5 was 8.02 µM (inactive); in the assay with RXF 393, 1.96 µM (inactive); in the assay on LOX IMVI, 2.67 µM (inactive); in the assay with SF-539, 18.1 µM (inactive); with SK-MEL-28, 10.6 µM (inactive); with MDA-MB-435, 12.3 µM (inactive). In addition, the GI50 was 20.7 µM (inactive) in the assay on A549; 14 µM (inactive) with PC-3; 14.1 µM (inactive) in the assay on SNB-75; 10.3 µM (inactive) in the assay on SK-MEL-2; 17.9 µM (inactive) in the assay with SF-268; 17.4 µM (inactive) in the assay on CAKI-1. Besides, the GI50 in the assay on MDA-N is 9.68 µM (inactive).

On to `CCn1c(=O)c2cn[nH]c2n(C)c1=O`, for which the GI50 with DU-145, with K562, with M14, in the assay with NCI-H460, in the assay on BT-549 and in the assay on Hs-578T was > 100 µM (inactive) throughout. Moreover, the GI50 in the assay on SK-MEL-5, in the assay with RXF 393, in the assay with LOX IMVI, in the assay with SF-539, in the assay with SK-MEL-28 and in the assay on MDA-MB-435 was > 100 µM (inactive) throughout. Besides, the GI50 in the assay with A549, in the assay with PC-3, in the assay on SNB-75, in the assay with SK-MEL-2, with SF-268 and in the assay with CAKI-1 was > 100 µM (inactive) throughout. Besides, the GI50 in the assay on MDA-N is > 100 µM (inactive).

For `Cc1cc(=O)n2c3c(c4c(cc13)c(CN(C)C)cc(=O)n4C)OC2`, the GI50 is 20 µM (inactive) with DU-145; 29.8 µM (inactive) with K562; 15.6 µM (inactive) in the assay with M14; 4.46 µM (inactive) in the assay with NCI-H460; 22 µM (inactive) in the assay with BT-549; 12.4 µM (inactive) with Hs-578T. Besides, the GI50 in the assay on SK-MEL-5 was 12.2 µM (inactive); in the assay with RXF 393, 6.56 µM (inactive); with LOX IMVI, 13.2 µM (inactive); with SF-539 it was 7.18 µM (inactive); in the assay with SK-MEL-28 it was 31.8 µM (inactive); in the assay with MDA-MB-435, 20.9 µM (inactive). Moreover, the GI50 in the assay with A549 is 10 µM (inactive); in the assay on PC-3, 19.9 µM (inactive); in the assay on SNB-75, 14.7 µM (inactive); with SK-MEL-2, 20.3 µM (inactive); in the assay on SF-268, 15.5 µM (inactive); with CAKI-1, 13.1 µM (inactive). Besides, the GI50 in the assay with MDA-N is 27.8 µM (inactive).

Take `COc1cc(C2c3cc4c(cc3OC(NN)C2C)OCO4)cc(OC)c1OC` (stereo not given): the GI50 is 1.94 µM (inactive) in the assay with DU-145; 0.333 µM (active) in the assay on K562; 0.483 µM (active) in the assay with M14; 0.489 µM (active) in the assay on NCI-H460; 9.12 µM (inactive) in the assay on BT-549; 0.234 µM (active) with Hs-578T. Besides, the GI50 was 0.478 µM (active) in the assay with SK-MEL-5; 0.593 µM (active) in the assay on RXF 393; 0.458 µM (active) in the assay on LOX IMVI; 0.247 µM (active) with SF-539; 50.8 µM (inactive) in the assay with SK-MEL-28; 0.157 µM (active) in the assay with MDA-MB-435. The GI50 with A549 was 1.58 µM (inactive); in the assay on PC-3, 0.556 µM (active); with SNB-75 it was 0.289 µM (active); with SK-MEL-2, 0.647 µM (active); in the assay with SF-268 it was 2.5 µM (inactive); in the assay on CAKI-1 it was 3.36 µM (inactive). Besides, the GI50 in the assay with MDA-N is 0.123 µM (active).

Take `Cc1c(C=C(C#N)C#N)c(=O)n(C)c(=O)n1C`: the GI50 in the assay on DU-145, with K562, in the assay on M14, in the assay on NCI-H460, in the assay with BT-549 and in the assay with Hs-578T was > 100 µM (inactive) throughout. Moreover, the GI50 with SK-MEL-5, with RXF 393, in the assay on LOX IMVI, in the assay on SF-539, with SK-MEL-28 and with MDA-MB-435 was > 100 µM (inactive) each time. The GI50 with A549, in the assay on PC-3, with SNB-75, with SK-MEL-2, in the assay on SF-268 and with CAKI-1 was > 100 µM (inactive) throughout. In the assay on MDA-N, the GI50 is > 100 µM (inactive).

In the case of `CN(C)CCCc1c[nH]c2ccccc12`, the GI50 with DU-145, with K562, with M14, with NCI-H460, with BT-549 and in the assay with Hs-578T was > 100 µM (inactive) in each case. Moreover, the GI50 with SK-MEL-5, in the assay on RXF 393, in the assay with LOX IMVI, in the assay with SF-539, with SK-MEL-28 and with MDA-MB-435 was > 100 µM (inactive) in each case. Moreover, the GI50 with A549, in the assay with PC-3, with SNB-75, in the assay on SK-MEL-2, in the assay on SF-268 and in the assay on CAKI-1 was > 100 µM (inactive) each time. In addition, the GI50 in the assay with MDA-N was > 100 µM (inactive).

Consider `COC(=O)c1ccccc1C1CN=NC12Cc1c(C)ccc(C)c1C2=O` (stereo not given), for which the GI50 is > 100 µM (inactive) in the assay with DU-145; 68.5 µM (inactive) in the assay with K562; > 100 µM (inactive) with M14; > 100 µM (inactive) in the assay with NCI-H460; > 100 µM (inactive) with BT-549; > 100 µM (inactive) with Hs-578T. Moreover, the GI50 with SK-MEL-5, with RXF 393, with LOX IMVI, in the assay on SF-539, in the assay on SK-MEL-28 and in the assay on MDA-MB-435 was > 100 µM (inactive) throughout. The GI50 in the assay with A549, in the assay with PC-3, in the assay on SNB-75, in the assay with SK-MEL-2, with SF-268 and in the assay with CAKI-1 was > 100 µM (inactive) throughout. The GI50 in the assay on MDA-N was > 100 µM (inactive).

As for `CC[P+](c1ccccc1)(N(C)C)N(C)C`, the GI50 in the assay with DU-145, in the assay on K562, in the assay with M14, in the assay with NCI-H460, with BT-549 and with Hs-578T was > 100 µM (inactive) throughout. The GI50 in the assay on SK-MEL-5 was 54.5 µM (inactive); in the assay with RXF 393 it was > 100 µM (inactive); in the assay with LOX IMVI, > 100 µM (inactive); with SF-539, > 100 µM (inactive); with SK-MEL-28 it was > 100 µM (inactive); with MDA-MB-435, > 100 µM (inactive). Besides, the GI50 is > 100 µM (inactive) in the assay on A549; 60.5 µM (inactive) with PC-3; > 100 µM (inactive) in the assay with SNB-75; > 100 µM (inactive) with SK-MEL-2; 95.1 µM (inactive) in the assay on SF-268; > 100 µM (inactive) in the assay with CAKI-1. Further, the GI50 in the assay with MDA-N is > 100 µM (inactive).

As to `CN(C)c1ccc2nc3c(C(=O)O)cc(O)c(O)c3[o+]c2c1`, the GI50 with DU-145 is 31.8 µM (inactive); in the assay with K562 it was 22.4 µM (inactive); with M14 it was 21.7 µM (inactive); with NCI-H460 it was 24.8 µM (inactive); in the assay with BT-549, 20.9 µM (inactive); in the assay with Hs-578T, 68.4 µM (inactive). Besides, the GI50 was 15.3 µM (inactive) in the assay with SK-MEL-5; 24.6 µM (inactive) in the assay on RXF 393; 33.1 µM (inactive) in the assay with LOX IMVI; 27 µM (inactive) in the assay with SF-539; 43 µM (inactive) in the assay with SK-MEL-28; 21.2 µM (inactive) in the assay on MDA-MB-435. Further, the GI50 in the assay on A549 was > 100 µM (inactive); in the assay on PC-3, 36.5 µM (inactive); with SNB-75 it was 21.5 µM (inactive); with SK-MEL-2, 16.3 µM (inactive); with SF-268, 41.5 µM (inactive); with CAKI-1 it was 52.8 µM (inactive). Besides, the GI50 with MDA-N was 23.1 µM (inactive).

Source of the values: ChEMBL document CHEMBL1201862, “PubChem BioAssay data set” (2004).
